Measurements taken from patent US11795177B2, “Substituted quinoline analogs as aldehyde dehydrogenase 1A1 (ALDH1A1) inhibitors” (THE UNITED STATES OF AMERICA, AS REPRESENTED BY THE …, priority 2017, dated 2023).
pIC50: −log10 of the molar value. Where a name gives a salt, the structure may show the parent alone.

What was measured:
ALDH1A1 enzyme = target: T1, ALDH1A1 enzyme (Homo sapiens, UniProt P00352); assay: ALDH1A1 enzymatic assay (in vitro); assay type: biochemical; conditions: ALDH1A1 enzyme 20 nM, NAD+ 1 mM, propionaldehyde 80 μM; read-out: ALDH1A1 IC50
T1 sequence (P00352 1-501): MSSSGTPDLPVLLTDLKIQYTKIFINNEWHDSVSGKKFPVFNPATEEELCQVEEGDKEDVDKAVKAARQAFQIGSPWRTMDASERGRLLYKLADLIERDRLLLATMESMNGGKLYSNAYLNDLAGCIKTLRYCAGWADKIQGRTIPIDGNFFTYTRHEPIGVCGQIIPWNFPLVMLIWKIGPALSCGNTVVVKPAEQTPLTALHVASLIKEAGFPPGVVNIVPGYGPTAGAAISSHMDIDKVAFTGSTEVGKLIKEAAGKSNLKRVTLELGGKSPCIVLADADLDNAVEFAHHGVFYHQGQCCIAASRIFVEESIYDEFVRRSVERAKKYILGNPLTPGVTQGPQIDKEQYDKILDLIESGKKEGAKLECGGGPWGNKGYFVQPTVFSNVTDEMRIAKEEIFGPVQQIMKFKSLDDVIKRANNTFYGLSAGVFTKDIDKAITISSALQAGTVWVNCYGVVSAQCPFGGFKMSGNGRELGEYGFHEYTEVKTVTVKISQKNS
Protocol: Example 358. ALDH1A1 Enzymatic Assay (In Vitro Assay)
3 μL of ALDH1A1 enzyme (final concentration 20 nM) or assay buffer (100 mM HEPES pH 7.5 with 0.01% Tween 20) were dispensed into a 1,536-well solid-bottom black plate (Greiner Bio One, Monroe, N.C.) followed by pin-tool transfer (23 nL) of candidate inhibitors (final concentration range 968 pM to 57.2 μM) and control (Bay 11-7085, final concentration range 1.31 nM to 2.86 μM). Samples were incubated (RT, protected from light) for 15 minutes followed by a 1 μL substrate addition of NAD^+ and Propionaldehyde (final concentrations of 1 mM and 80 μM, respectively). Plates were centrifuged at 1,000 rpm for 15 seconds, then read in kinetic mode on a ViewLux High-throughput CCD imager (Perkin-Elmer) equipped with standard UV fluorescence optics (340 nm excitation, 450 nm emission) for 10 minutes. The change in fluorescence intensity over the 10-minute reaction period was normalized against no-inhibitor and no-enzyme controls and the resulting percent inhibition data were fitted for biological activity.

MIA PaCa-2 cells = assay: MIA PaCa2 cell-based assay (1,536-well high-content imaging ALDEFLUOR assay); design: species or system human; conditions: Homo sapiens, 0.5 h, ALDEFLUOR BAAA substrate 500 nM, 30 minutes
Procedure, shortened: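 MIA PaCa-2 cells (1,000/well), plated overnight, given BAAA substrate (500 nM) plus Hoechst 33342 (0.5 nM), then compound (16-point, 1.4 nM–47.8 μM final; 0.5% DMSO). After 30 min at 37° C, ALDH activity imaged by high-content microscopy as BAA-retaining (FITC) cells versus Hoechst-stained nuclei.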

Compound	pIC50 (ALDH1A1 enzyme)	pIC50 (MIA PaCa-2 cells)
N#CC1(c2ccc(-c3c(C(=O)N4CCC(O)(CO)CC4)cnc4ccc(F)cc34)cc2)CC1 [Cpd. 354, 1-(4-(6-fluoro-3-(4-hydroxy-4-(hydroxymethyl)piperidine-1-carbonyl)quinolin-4-yl)phenyl)cyclopropane-1-carbonitrile]	> 6.30	5.00 to 6.00
CNC(=O)Cn1cc(NC(=O)c2cnc3ccc(F)cc3c2-c2ccc(C3(C#N)CC3)cc2)cn1 [Cpd. 355, 4-(4-(1-cyanocyclopropyl)phenyl)-6-fluoro-N-(1-(2-(methylamino)-2-oxoethyl)-1H-pyrazol-4-yl)quinoline-3-carboxamide]	> 6.30	5.00 to 6.00
CS(=O)(=O)N1CCN(C(=O)c2cnc3ccc(F)cc3c2N2CCC(C#N)(c3cccs3)CC2)CC1 [Cpd. 356, 1-(6-fluoro-3-(4-(methylsulfonyl)piperazine-1-carbonyl)quinolin-4-yl)-4-(thiophen-2-yl)piperidine-4-carbonitrile]	> 6.30	> 6.30
CS(=O)(=O)N1CCN(C(=O)c2cnc3ccc(F)cc3c2-c2ccc(/C(C#N)=C/C3CC3)cc2)CC1 [Cpd. 357, (Z)-3-cyclopropyl-2-(4-(6-fluoro-3-(4-(methylsulfonyl)piperazine-1-carbonyl)quinolin-4-yl)phenyl)acrylonitrile]	> 6.30	> 6.30
COc1ccc2ncc(C(=O)N3CCN(C(=O)C4CC4)CC3)c(N3CCC(OC)CC3)c2c1 [Example 3, (4-(cyclopropanecarbonyl)piperazin-1-yl)(6-methoxy-4-(4-methoxypiperidin-1-yl)quinolin-3-yl)methanone, TFA]	> 6.30	< 5.00
COc1ccc2ncc(C(=O)N3CCC(OC)CC3)c(N3CCC(OC)CC3)c2c1 [Example 4, (6-methoxy-4-(4-methoxypiperidin-1-yl)quinolin-3-yl)(4-methoxypiperidin-1-yl)methanone, TFA]	> 6.30	5.00 to 6.00
COc1ccc2ncc(C(=O)N3CCC(c4ccccc4)CC3)c(N3CCC4(CC3)OCCO4)c2c1 [Example 10, (6-methoxy-4-(1,4-dioxa-8-azaspiro[4.5]decan-8-yl)quinolin-3-yl)(4-phenylpiperidin-1-yl)methanone, TFA]	> 6.30	< 5.00
COc1ccc2ncc(C(=O)N3CCC(C(F)(F)F)CC3)c(N3CCC4(CC3)OCCO4)c2c1 [Example 12, (6-methoxy-4-(1,4-dioxa-8-azaspiro[4.5]decan-8-yl)quinolin-3-yl)(4-(trifluoromethyl)piperidin-1-yl)methanone, TFA]	> 6.30	5.00 to 6.00
COc1ccc2ncc(C(=O)N3CCN(C(=O)C4CC4)CC3)c(N3CCC4(CCCC4)CC3)c2c1 [Example 17, (4-(cyclopropanecarbonyl)piperazin-1-yl)(6-methoxy-4-(8-azaspiro[4.5]decan-8-yl)quinolin-3-yl)methanone, TFA]	> 6.30	5.00 to 6.00
COc1ccc2ncc(C(=O)N3CCN(C(=O)C4CC4)CC3)c(N3CCC(C)(C)CC3)c2c1 [Example 18, (4-(cyclopropanecarbonyl)piperazin-1-yl)(4-(4,4-dimethylpiperidin-1-yl)-6-methoxyquinolin-3-yl)methanone, TFA]	> 6.30	5.00 to 6.00
COc1ccc2ncc(C(=O)N3CCN(C(=O)C4CC4)CC3)c(N3CCN(S(C)(=O)=O)CC3)c2c1 [Example 19, (4-(cyclopropanecarbonyl)piperazin-1-yl)(6-methoxy-4-(4-(methylsulfonyl)piperazin-1-yl)quinolin-3-yl)methanone, TFA]	5.00 to 6.00	5.00 to 6.00
COc1ccc2ncc(C(=O)N3CCN(C(=O)C4CC4)CC3)c(N3CCN(C(C)=O)CC3)c2c1 [Example 23, 1-(4-(3-(4-(cyclopropanecarbonyl)piperazine-1-carbonyl)-6-methoxyquinolin-4-yl)piperazin-1-yl)ethanone]	< 5.00	< 5.00
COc1ccc2ncc(C(=O)N3CCN(C(=O)C4CC4)CC3)c(N3CCC4(CCCO4)CC3)c2c1 [Example 24, (4-(cyclopropanecarbonyl)piperazin-1-yl)(6-methoxy-4-(1-oxa-8-azaspiro[4.5]decan-8-yl)quinolin-3-yl)methanone]	> 6.30	< 5.00
COc1ccc2ncc(C(=O)N3CCN(C(=O)C4CC4)CC3)c(N3CCC(C#N)CC3)c2c1 [Example 25, 1-(3-(4-(cyclopropanecarbonyl)piperazine-1-carbonyl)-6-methoxyquinolin-4-yl)piperidine-4-carbonitrile]	< 5.00	< 5.00
COc1ccc2ncc(C(=O)N3CCN(C(=O)C4CC4)CC3)c(N3CCC(C)(OC)CC3)c2c1 [Example 26, (4-(cyclopropanecarbonyl)piperazin-1-yl)(6-methoxy-4-(4-methoxy-4-methylpiperidin-1-yl)quinolin-3-yl)methanone]	> 6.30	< 5.00

Second part, the compound after the results:

pIC50 (ALDH1A1 enzyme)	pIC50 (MIA PaCa-2 cells)	Compound
> 6.30	5.00 to 6.00	COc1ccc2ncc(C(=O)N3CCC(OC)CC3)c(N3CCC4(CC3)OCCO4)c2c1 [Example 2, (6-methoxy-4-(1,4-dioxa-8-azaspiro[4.5]decan-8-yl)quinolin-3-yl)(4-methoxypiperidin-1-yl)methanone, TFA]
> 6.30	< 5.00	COc1ccc2ncc(C(=O)N3CCN(C(=O)C(C)C)CC3)c(N3CCC4(CC3)OCCO4)c2c1 [Example 5, 1-(4-(6-methoxy-4-(1,4-dioxa-8-azaspiro[4.5]decan-8-yl)quinoline-3-carbonyl)piperazin-1-yl)-2-methylpropan-1-one, TFA]
> 6.30	5.00 to 6.00	CCC(=O)N1CCN(C(=O)c2cnc3ccc(OC)cc3c2N2CCC3(CC2)OCCO3)CC1 [Example 6, 1-(4-(6-methoxy-4-(1,4-dioxa-8-azaspiro[4.5]decan-8-yl)quinoline-3-carbonyl)piperazin-1-yl)propan-1-one, TFA]
> 6.30	< 5.00	COc1ccc2ncc(C(=O)N3CCN(C(=O)c4cnn(C)c4)CC3)c(N3CCC4(CC3)OCCO4)c2c1 [Example 7, (6-methoxy-4-(1,4-dioxa-8-azaspiro[4.5]decan-8-yl)quinolin-3-yl)(4-(1-methyl-1H-pyrazole-4-carbonyl)piperazin-1-yl)methanone, TFA]
5.00 to 6.00	< 5.00	COc1ccc2ncc(C(=O)N3CCN(C(C)C)CC3)c(N3CCC4(CC3)OCCO4)c2c1 [Example 8, (4-isopropylpiperazin-1-yl)(6-methoxy-4-(1,4-dioxa-8-azaspiro[4.5]decan-8-yl)quinolin-3-yl)methanone, TFA]
5.00 to 6.00	< 5.00	COc1ccc2ncc(C(=O)N3CCN(C4CCCC4)CC3)c(N3CCC4(CC3)OCCO4)c2c1 [Example 9, (4-cyclopentylpiperazin-1-yl)(6-methoxy-4-(1,4-dioxa-8-azaspiro[4.5]decan-8-yl)quinolin-3-yl)methanone, TFA]
< 5.00	< 5.00	COc1ccc2ncc(C(=O)N3CCC(N4CCCC4)CC3)c(N3CCC4(CC3)OCCO4)c2c1 [Example 11, (6-methoxy-4-(1,4-dioxa-8-azaspiro[4.5]decan-8-yl)quinolin-3-yl)(4-(pyrrolidin-1-yl)piperidin-1-yl)methanone, TFA]
> 6.30	5.00 to 6.00	COc1ccc2ncc(C(=O)N3CCN(S(C)(=O)=O)CC3)c(N3CCC4(CC3)OCCO4)c2c1 [Example 13, (6-methoxy-4-(1,4-dioxa-8-azaspiro[4.5]decan-8-yl)quinolin-3-yl)(4-(methylsulfonyl)piperazin-1-yl)methanone, TFA]
> 6.30	< 5.00	COc1ccc2ncc(C(=O)N3CCN(c4cccnc4)CC3)c(N3CCC4(CC3)OCCO4)c2c1 [Example 14, (6-methoxy-4-(1,4-dioxa-8-azaspiro[4.5]decan-8-yl)quinolin-3-yl)(4-(pyridin-3-yl)piperazin-1-yl)methanone, TFA]
5.00 to 6.00	< 5.00	COc1ccc2ncc(C(=O)N3CCN(c4ccncc4)CC3)c(N3CCC4(CC3)OCCO4)c2c1 [Example 15, (6-methoxy-4-(1,4-dioxa-8-azaspiro[4.5]decan-8-yl)quinolin-3-yl)(4-(pyridin-4-yl)piperazin-1-yl)methanone, TFA]
